Results from US20020107248A1, “Method for treating patients with neoplasia by administering substituted sulfonyl indenyl acetic and propionic acids and esters thereof” (priority 1991, published 2002).

Tested on: colonic bacteria

With CC1=C(CC(=O)O)c2cc(F)ccc2C1=Cc1ccc(S(C)(=O)=O)cc1 [Example 10, α-(1-ρ-Methylsulfonylbenzylidene)-2-Methyl-5-Fluoro-3-Indenyl-Acetic Acid] the “conversion of the sulfonyl compound in human fecal material” value was “converted to an unknown derivative”.
